Assay results from patent US11396495B2, “Amine compound for inhibiting SSAO/VAP-1 and use thereof” (SUNSHINE LAKE PHARMA CO., LTD., priority 2017, dated 2022).
Counter-ions that a name gives are not always drawn.

How the values were obtained:
human recombinant DAO = human recombinant DAO (Homo sapiens (Human), UniProt P19801); assay: Determination of selective inhibitory for DAO (diamine oxidase); assay type: biochemical; conditions: human recombinant DAO, 1,4-diaminobutane substrate
Procedure: 3. Determination of Selective Inhibitory for DAO (Diamine Oxidase)
Test purpose: The following methods can be used to determine the selective inhibitory activity of the compounds of the invention for DAO.
human recombinant DAO (Recombinant Human ABP-1/DAO) purchased from R&D, Cat. No. 8298-AO;
The test compound was dissolved in DMSO and diluted to 6 concentrations in 5-fold serial dilution. In 384 well plates, 24 μL of human recombinant DAO (1 μg/mL) was added to each well. 1 μL Of test compounds with different concentrations were added to each well containing human recombinant DAO and incubated at 37° C. for 30 min. After 30 min incubation, 25 μL of Amplex® Red Hydrogen PeroxidePeroxidase Assay Kit (containing a reaction mixture of 100 μM Amplex® Red and 0.2 U/mL HRP) containing 1 M 1,4-Diaminobutane dihydrochloride was added to the corresponding well, and incubated at 37° C. and dark for 30 min. After 30 min, the relative fluorescence unit (RFU) was read by using PHERAstar FSX enzyme marker of BMG LABTECH at 540 nm excitation and 580 nm emission. The curve was drawn by using the graph pad prism 5 software, and the IC50 value was calculated. The results were shown in table 3, wherein the compound listed in table 3 is the compound in the preparation examples with the same compound number: […]

[1] = molecular target: rat adipose tissue homogenate SSAO/VAP-1 (Rattus norvegicus (Rat), UniProt O08590); assay: Determination of inhibitory activity of rat adipose tissue homogenate SSAO/VAP-1; assay type: biochemical, Sprague Dawley rats; conditions: rat abdominal adipose tissue homogenate, pargyline pretreated, 37° C.
Chain of rat adipose tissue homogenate SSAO/VAP-1 (O08590 whole entry): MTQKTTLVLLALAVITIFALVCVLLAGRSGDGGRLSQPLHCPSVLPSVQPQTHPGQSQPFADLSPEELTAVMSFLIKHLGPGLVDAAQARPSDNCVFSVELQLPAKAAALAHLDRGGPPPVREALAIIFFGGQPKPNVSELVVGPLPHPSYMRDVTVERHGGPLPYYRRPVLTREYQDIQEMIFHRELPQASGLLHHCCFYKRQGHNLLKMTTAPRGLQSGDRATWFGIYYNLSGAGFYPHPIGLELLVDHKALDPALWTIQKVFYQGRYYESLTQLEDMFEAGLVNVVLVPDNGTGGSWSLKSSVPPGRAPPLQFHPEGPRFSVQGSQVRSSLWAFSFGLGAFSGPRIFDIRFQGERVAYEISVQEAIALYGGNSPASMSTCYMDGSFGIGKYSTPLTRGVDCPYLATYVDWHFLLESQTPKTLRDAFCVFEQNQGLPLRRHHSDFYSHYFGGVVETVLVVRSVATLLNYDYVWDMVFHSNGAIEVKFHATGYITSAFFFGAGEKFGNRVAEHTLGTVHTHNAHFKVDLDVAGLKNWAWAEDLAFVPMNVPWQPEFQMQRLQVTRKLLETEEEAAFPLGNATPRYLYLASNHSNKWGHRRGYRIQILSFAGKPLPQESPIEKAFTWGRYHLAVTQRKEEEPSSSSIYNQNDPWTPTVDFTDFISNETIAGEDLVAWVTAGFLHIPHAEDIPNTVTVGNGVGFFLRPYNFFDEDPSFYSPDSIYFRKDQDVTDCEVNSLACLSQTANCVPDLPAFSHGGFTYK
Procedure: 2. Determination of Inhibitory Activity of Rat Adipose Tissue Homogenate SSAO/VAP-1
Test purpose: The following methods can be used to determine the inhibitory activity of the compounds of the invention for rat adipose tissue homogenate SSAO/VAP-1.
The abdominal fat removed from Sprague Dawley rats was a tissue rich in SSAO/VAP-1. 5 mL Of HES buffer per gram of rat abdominal adipose tissue (20 mM Sodium N-piperazine-N-ethanesulfonate, 1 mm EDTA, 250 mM sucrose, 1×PMSF and 100 mM (3-glycerol phosphate disodium salt hydrate, pH 7.4) was added for homogenizing. The fat tissue was homogenized for 3 min by using Bertin precellys 24 multi-functional sample homogenizer of Bertin technologies, and the fat tissue homogenate was centrifuged for 10 min at 4° C. and 20000 g, and the middle transparent supernatant was taken. The supernatant was incubated with 0.5 mm Pargyline hydrochloride dissolved in HES buffer at 37° C. for 30 min. After 30 min incubation, 25 μl of fat tissue supernatant was added to the standard 96 well plate. The test compound was dissolved in DMSO and diluted to 6 concentrations. 25 μL Of the test compounds with different concentrations was added to each well containing the supernatant of fat tissue and incubated at 37° C. for 30 min. After incubation, 50 μL of the reaction mixture containing 80 μM benzylamine hydrochloride (containing 100 μM Amplex® red and 0.2 U/mL HRP, Amplex® Red Hydrogen peroxideperoxidase assay kit) was added to the corresponding wells and incubated at 37° C. for 30 min. After 30 min, the relative fluorescence unit (RFU) was read by using PHERAstar FSX enzyme marker of BMG LABTECH at 540 nm excitation and 580 nm emission. The curve was drawn by using the graph pad prism 5 software, and the IC50 value was calculated. The results were shown in table 2, wherein the compound listed in table 2 is the compound in the preparation examples with the same compound number: Table 2: inhibitory activity of the compound of examples of the invention for SSAO/VAP-1 of fat tissue homogenate

[2] = Pharmacokinetics in SD rats after intravenous or oral administration; assay type: in vivo; conditions: male, rat, plasma; for Vd: read-out: Vss
Procedure: 4. Pharmacokinetic Activities of the Compounds of the Invention
Test purpose: The following methods were used to evaluate the pharmacokinetics of the compound of the invention.
SD rats: male, 180-220 g, 7-8 weeks old, purchased from Hunan SJA Laboratory Animal Co., Ltd.
Test compound was prepared by dissolving in a mixture of 5% DMSO+5% KolliphorHS15+90% Saline and adjusted according to the dissolution of each compound, so that the compound can be completely dissolved.
The samples were processed by liquid-liquid extraction, separated by chromatography, quantitatively analyzed by multiple reaction ion monitoring (MRM) on triple quadrupole tandem mass spectrometer, and the results were calculated by using quantitative software.
Taking 30 μL of plasma sample precisely, adding 250 μL of internal standard, and vortex mixing uniformly. Extracting once with 1 mL MTBE, centrifugating at 13000 rpm and 4° C. for 2 min, taking 800 μL of supernatant, and evaporating it in a 96-well termovap sample concentrator, dissolving the residue with 150 μL methanol/water=50/50, vortex mixing, injecting 8 μL.
Determining the content of different compounds in the plasma of rats after the administration by using LC/MS/MS method.
Pharmacokinetic parameters were calculated using a noncompartmental method by WinNonLin 6.1 software.
The pharmacokinetic data of the compounds of the invention were listed in table 4, wherein the compound listed in table 4 is the compound in the preparation examples with the same compound number: […]

[3] = molecular target: Human recombinant SSAO/VAP-1 (Homo sapiens (Human), UniProt Q16853); assay: Determination of inhibitory activity of human recombinant SSAO/VAP-1 (Amplex Red, benzylamine); assay type: biochemical; conditions: human recombinant SSAO/VAP-1, 30 min preincubation at room temperature; read-out: SSAO/VAP-1(Human recombinant protein) IC50/nM
Chain of Human recombinant SSAO/VAP-1 (Q16853 whole entry): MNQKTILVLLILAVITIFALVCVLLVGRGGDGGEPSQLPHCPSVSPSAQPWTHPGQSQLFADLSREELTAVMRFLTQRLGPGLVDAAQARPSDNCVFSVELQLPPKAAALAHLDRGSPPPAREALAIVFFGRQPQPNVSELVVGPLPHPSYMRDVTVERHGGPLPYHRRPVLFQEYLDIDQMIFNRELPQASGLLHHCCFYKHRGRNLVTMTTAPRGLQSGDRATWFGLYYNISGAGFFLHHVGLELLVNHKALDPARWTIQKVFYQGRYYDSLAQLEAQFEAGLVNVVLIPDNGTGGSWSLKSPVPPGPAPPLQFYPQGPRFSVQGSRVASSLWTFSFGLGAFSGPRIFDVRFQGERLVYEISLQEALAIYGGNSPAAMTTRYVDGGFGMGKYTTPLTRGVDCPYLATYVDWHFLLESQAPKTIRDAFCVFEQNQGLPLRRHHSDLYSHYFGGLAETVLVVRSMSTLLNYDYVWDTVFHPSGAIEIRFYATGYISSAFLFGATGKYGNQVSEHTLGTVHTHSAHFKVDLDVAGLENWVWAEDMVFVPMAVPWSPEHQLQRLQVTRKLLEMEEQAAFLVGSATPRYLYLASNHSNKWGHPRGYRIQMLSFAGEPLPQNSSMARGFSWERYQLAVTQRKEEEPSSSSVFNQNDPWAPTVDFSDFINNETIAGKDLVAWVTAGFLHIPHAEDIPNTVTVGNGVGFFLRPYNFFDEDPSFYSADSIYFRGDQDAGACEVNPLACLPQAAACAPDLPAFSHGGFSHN
Procedure: 1. Determination of Inhibitory Activity of Human Recombinant SSAO/VAP-1
Test purpose: The following methods can be used to determine the inhibitory activity of the compounds described in the examples of the invention for human recombinant SSAO/VAP-1.
Human recombinant SSAO/VAP-1 (VAP-1, human) purchased from Sigma, Cat. No. SRP6241;
The test compound was dissolved in DMSO and diluted to 10 concentrations in 4-fold serial dilution. In 384 well plates, 25 μL of human recombinant SSAO/VAP-1 (1.6 μg/ml) was added to each well. 100 nL of test compounds with different concentrations were added to each well containing human recombinant SSAO/VAP-1 and incubated at room temperature for 30 min. After 30 min incubation, 25 μl of Amplex® red monoamine oxidase assay kit (containing a reaction mixture of 200 μm Amplex Red reagent, 1 U/ml HRP and 1 mm benzylamine hydrochloride) was added to the corresponding well, and incubated at room temperature and dark for 60 min. After 60 min, the relative fluorescence unit (RFU) was read by using PerkinElmer's Envision at 530-560 nm excitation and 590 nm emission. The curve was drawn by using the graph pad prism 5 software, and the IC50 value was calculated. The results were shown in table 1, wherein the compound listed in table 1 is the compound in the preparation examples with the same compound number: […]

Chain of human recombinant DAO (P19801 20-751): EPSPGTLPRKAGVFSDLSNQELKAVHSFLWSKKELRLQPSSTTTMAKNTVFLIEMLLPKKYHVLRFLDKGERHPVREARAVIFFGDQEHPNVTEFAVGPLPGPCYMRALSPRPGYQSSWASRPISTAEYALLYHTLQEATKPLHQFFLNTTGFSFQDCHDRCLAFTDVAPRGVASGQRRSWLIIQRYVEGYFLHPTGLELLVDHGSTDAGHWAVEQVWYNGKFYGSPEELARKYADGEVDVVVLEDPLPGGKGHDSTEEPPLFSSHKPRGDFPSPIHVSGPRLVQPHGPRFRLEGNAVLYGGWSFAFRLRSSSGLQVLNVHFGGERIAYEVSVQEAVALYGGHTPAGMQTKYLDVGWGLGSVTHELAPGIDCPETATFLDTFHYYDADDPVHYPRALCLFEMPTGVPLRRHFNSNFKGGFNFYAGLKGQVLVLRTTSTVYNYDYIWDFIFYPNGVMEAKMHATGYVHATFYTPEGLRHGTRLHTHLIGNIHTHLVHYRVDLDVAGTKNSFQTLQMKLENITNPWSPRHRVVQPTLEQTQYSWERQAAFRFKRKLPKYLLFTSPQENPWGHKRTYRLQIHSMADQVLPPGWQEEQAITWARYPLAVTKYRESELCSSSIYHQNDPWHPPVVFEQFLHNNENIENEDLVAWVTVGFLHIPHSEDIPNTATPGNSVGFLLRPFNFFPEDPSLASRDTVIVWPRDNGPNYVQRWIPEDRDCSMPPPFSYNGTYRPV

Question: Which IC50 (human recombinant DAO) does the source give for `NC/C(=C\F)COc1ccc2c(c1)CCNC2=O` [Compound 3, 6-[(E)-2-(aminomethyl)-3-fluoro-allyloxy]-3,4-dihydro-2H-isoquinolin-1-one hydrochloride] here?
Answer: > 0.1 µM

Question: What does the source list for `CCOC(=O)CN1CCc2cc(OC/C(=C/F)CN)ccc2C1=O` [Compound 12, ethyl 2-[6-[(E)-2-(aminomethyl)-3-fluoro-allyloxy]-1-oxo-3,4-dihydroisoquinolin-2-yl]acetate hydrochloride]?
Answer: IC50 [1]: 10.1 nM; AUC(0-inf) ([2]; iv, I.V., 1 mg/kg): 843 ng·h/mL; AUC(0-t) ([2]; iv, I.V., 1 mg/kg): 837 ng·h/mL; Cmax ([2]; iv, I.V., 1 mg/kg): 946 ng/mL; Tmax ([2]; iv, I.V., 1 mg/kg): 15 min; clearance ([2]; iv, I.V., 1 mg/kg): 330 mL/min/kg; half-life ([2]; iv, I.V., 1 mg/kg): 56.2 min; Vd ([2]; iv, I.V., 1 mg/kg): 1.07 L/kg; AUC(0-inf) ([2]; po, P.O., 5 mg/kg): 2900 ng·h/mL; AUC(0-t) ([2]; po, P.O., 5 mg/kg): 2890 ng·h/mL; Cmax ([2]; po, P.O., 5 mg/kg): 2190 ng/mL; Tmax ([2]; po, P.O., 5 mg/kg): 25 min; half-life ([2]; po, P.O., 5 mg/kg): 57.5 min; IC50 [3]: 0.14 nM; IC50 (human recombinant DAO): > 0.1 µM

Question: With `NC/C(=C\F)COc1ccc2c(c1)C(=O)NCC2` [Compound 14, 7-[(E)-2-(aminomethyl)-3-fluoro-allyloxy]-3,4-dihydro-2H-isoquinolin-1-one hydrochloride] as the molecule, how does the IC50 (human recombinant DAO) read?
Answer: > 1 µM

Question: Which results are given for `COCCN1CCc2cc(OC/C(=C/F)CN)ccc2C1=O` [Compound 18, 6-[(E)-2-(aminomethyl)-3-fluoro-allyloxy]-2-(2-methoxyethyl)-3,4-dihydroisoquinolin-1-one hydrochloride]?
Answer: IC50 [1]: 6.13 nM; IC50 [3]: 0.48 nM

Question: For `COCCN1CCc2cc(OC/C(=C\F)CN)ccc2C1=O` [Compound 19, 6-[(Z)-2-(aminomethyl)-3-fluoro-allyloxy]-2-(2-methoxyethyl)-3,4-dihydro isoquinolin-1-one hydrochloride], which IC50 [1] is on record?
Answer: 5.7 nM

Question: What about the IC50 [3] of the same molecule?
Answer: 1 nM

Question: Which results are given for `Cc1ccc(N2CCc3cc(OC/C(=C/F)CN)ccc3C2=O)cc1` [Compound 24, 6-[(E)-2-(aminomethyl)-3-fluoro-allyloxy]-2-(p-methylphenyl)-3,4-dihydroisoquinolin-1-one hydrochloride]?
Answer: AUC(0-inf) ([2]; iv, I.V., 1 mg/kg): 450 ng·h/mL; AUC(0-t) ([2]; iv, I.V., 1 mg/kg): 364 ng·h/mL; Cmax ([2]; iv, I.V., 1 mg/kg): 144 ng/mL; Tmax ([2]; iv, I.V., 1 mg/kg): 4.98 min; clearance ([2]; iv, I.V., 1 mg/kg): 617 mL/min/kg; half-life ([2]; iv, I.V., 1 mg/kg): 179 min; Vd ([2]; iv, I.V., 1 mg/kg): 9.19 L/kg; AUC(0-inf) ([2]; po, P.O., 5 mg/kg): 5320 ng·h/mL; AUC(0-t) ([2]; po, P.O., 5 mg/kg): 5280 ng·h/mL; Cmax ([2]; po, P.O., 5 mg/kg): 569 ng/mL; Tmax ([2]; po, P.O., 5 mg/kg): 150 min; half-life ([2]; po, P.O., 5 mg/kg): 207 min; IC50 [3]: 1.16 nM; IC50 (human recombinant DAO): > 0.1 µM

Question: What does the source list for `NC/C(=C/F)COc1ccc2c(c1)CCNS2(=O)=O` [Compound 33, (E)-2-[(1,1-dioxo-3,4-dihydro-2H-benzo[e][1,2]thiazin-6-yl)oxymethyl]-3-fluoro-prop-2-enyl-1-amine hydrochloride]?
Answer: IC50 [1]: 4.88 nM; IC50 [3]: 1.98 nM

Question: With `Cc1ccccc1N1CCc2cc(OC/C(=C/F)CN)ccc2C1=O` [Compound 46, 6-[(E)-2-(aminomethyl)-3-fluoro-allyloxy]-2-o-methylphenyl-3,4-dihydroisoquinolin-1-one hydrochloride] as the molecule, how does the IC50 (human recombinant DAO) read?
Answer: > 0.1 µM
